Experimental data: patent US8431566B2, “Cyclopamine lactam analogs and methods of use thereof” (Infinity Discovery, Inc., priority 2007, dated 2013)

Experiments:
[1] = tested on: Hedgehog pathway in C3H10T1/2 cells; test: C3H10T1/2 osteoblast differentiation assay (alkaline phosphatase readout, Shh-induced); type: cell-based; details: Mus musculus, C3H 10T1/2, Approximate EC50 for inhibition, sonic Hedgehog 250 ng/ml, AP activity normalized against total protein
Source text: Hedgehog pathway specific cancer cell killing effects may be ascertained using the following assay. C3H10T1/2 cells differentiate into osteoblasts when contacted with the sonic hedgehog peptide (Shh-N). Upon differentiation; these osteoblasts produce high levels of alkaline phosphatase (AP) which can be measured in an enzymatic assay (Nakamura, et al., BBRC (1997) 237:465). Compounds that block the differentiation of C3H10T1/2 into osteoblasts (a Shh dependent event) can therefore be identified by a reduction in AP production (van der Horst, et al., Bone (2003) 33:899). The assay details are described below. The results (EC50 for inhibition) of the differentiation assay are shown below in Table 1.
Mouse embryonic mesoderm fibroblasts C3H10T1/2 cells (obtained from ATCC) were cultured in Basal MEM Media (Gibco/Invitrogen) supplemented with 10% heat inactivated FBS (Hyclone), 50 units/ml penicillin and 50 ug/ml streptomycin (Gibco/Invitrogen) at 37° C. with 5% CO2 in air atmosphere.
C3H10T1/2 cells were plated in 96 wells with a density of 8×10^3 cells/well. Cells were grown to confluence (72 hrs). After sonic Hedgehog (250 ng/ml), and/or compound treatment, the cells were lysed in 110 μL, of lysis buffer (50 mM Tris pH 7.4, 0.1% Triton X 100), plates were sonicated and lysates spun through 0.2 μm PVDF plates (Corning). 40 μL of lysates was assayed for AP activity in alkaline buffer solution (Sigma) containing 1 mg/ml p-Nitrophenyl Phosphate. After incubating for 30 min at 37° C., the plates were read on an Envision plate reader at 405 nm. Total protein was quantified with a BCA protein assay kit from Pierce according to manufacturer's instructions. AP activity was normalized against total protein.

U937 = test: AML colony formation in methylcellulose, U937; type: cell-based, human; details: 1.0 uM, 72 hours
Method: (§1) The ability of Compound 12 to inhibit the in vitro growth of human cell lines derived from patients with acute myeloid leukemia (AML, cell line U937) and myelodysplastic syndrome (MDS, cell line KG1 and KG1a) was studied. Each of the cell lines was treated for 72 hours with Compound 12 (1.0 uM) followed by plating in methylcellulose.

REH = test: Pre-B cell ALL colony formation in methylcellulose, REH; type: cell-based; details: treated 72 hours
Method: (§2) The effect of Compound 12 on the growth of two of these cell lines, treated in vitro for 72 hours, was also studied. Following treatment, cells were washed and plated in methylcellulose.

RS4-11 = test: Pre-B cell ALL colony formation in methylcellulose, RS4-11; type: cell-based; details: treated 72 hours
Method: as §2

Jeko-1 = test: Non-Hodgkin's lymphoma colony formation in methylcellulose, Jeko-1; type: cell-based, human; details: NHL, 1.0 uM, 72 hours
Method: (§3) The ability of Compound 12 to inhibit the in vitro growth of human cell lines derived from patients with non-Hodgkin's lymphoma (cell lines RL and Jeko-1) and Hodgkin's disease (cell line L428) was studied. Each of the cell lines was treated for 72 hours with Compound 12 (1.0 uM) followed by plating in methylcellulose.

RL = test: Non-Hodgkin's lymphoma colony formation in methylcellulose, RL; type: cell-based, human; details: NHL, 1.0 uM, 72 hours
Method: as §3

murine Gli-1 mRNA = test: Pancreatic cancer model: q-RT-PCR of HH pathway genes in harvested tumors, murine Gli-1; type: in vivo; details: BXPC-3 tumors harvested 4 hours post the last dose; 30 mg/kg/day orally
Method: (§4) The activity of Compound 12 was further tested in a human pancreatic model: BXPC-3 cells were implanted subcutaneously into the flanks of the right legs of mice. On day 42 post-tumor implant, the mice were randomized into two groups to receive either Vehicle (30% HPBCD) or Compound 12. Compound 12 was administered orally at 30 mg/kg/day. After receiving 25 daily doses, Compound 12 reduced tumor volume growth by 16% when compared to the vehicle control. At the end of the study, the tumors were harvested 4 hours post the last dose to evaluate an on target response by q-RT-PCR analysis of the HH pathway genes.

[2] = tested on: primary clinical bone marrow specimens derived from patients with MM; test: Multiple myeloma colony growth in methylcellulose, primary clinical bone marrow specimens; type: cell-based, human; details: clinical samples from MM patients; treated 96 hours, plated in methylcellulose
Method: (§5) The ability of Compound 12 to inhibit the growth of multiple myeloma cells (MM) in vitro was tested, using human multiple myeloma cells lines (NCI-H929 and KMS12) and primary clinical bone marrow specimens derived from patients with MM. The cells were treated for 96 hours with Compound, washed, then plated in methylcellulose. Tumor colonies were quantified 10-21 days later as an indicator of cell growth potential following treatment.

[3] = tested on: Gli-reponsive luciferase reporter in REH; test: Gli-responsive luciferase reporter transient transfection assay, REH; type: cell-based; details: 1 uM, vehicle alone 6.73
Method: (§6) The activity of Compound 12 (1 uM) against three pre-B cell acute lymphocytic leukemia cell lines (REH, RS4-11, and Nalm-6) was studied, using a transient transfection assay in which a Gli-reponsive luciferase reporter was transiently transfected into cells. Treatment with Compound 12 repressed luciferase activity compared to a vehicle treated control (Table 4).

[4] = tested on: Gli-reponsive luciferase reporter in RS4-11; test: Gli-responsive luciferase reporter transient transfection assay, RS4-11; type: cell-based; details: 1 uM, vehicle alone 12.97
Method: as §6

KMS12 = test: Multiple myeloma colony growth in methylcellulose, KMS12; type: cell-based, human; details: treated 96 hours, plated in methylcellulose, colonies quantified 10-21 days later
Method: as §5

[5] = tested on: Gli-reponsive luciferase reporter in Nalm-6; test: Gli-responsive luciferase reporter transient transfection assay, Nalm-6; type: cell-based; details: 1 uM, vehicle alone 8.42
Method: as §6

medulloblastoma = test: Medulloblastoma model (Ptch1/Hic1 subcutaneous allografts): tumor growth; type: in vivo, mouse
Method: (§7) The activity of Compound 12 was also evaluated in a transgenic mouse model of medulloblastoma. Mice that are heterozygous for loss of function mutations in the tumor suppressors Patched1 (Ptch1) and Hypermethylated in Cancer (Hic1) develop spontaneous medulloblastoma. […] When passaged as subcutaneous allografts, these tumors grow aggressively and are Hedgehog pathway-dependent. This model was employed to evaluate the efficacy of orally administered Compound, and to correlate activity with drug exposure in plasma and tumors.

human Gli-1 = test: Pancreatic cancer model: q-RT-PCR of HH pathway genes in harvested tumors, human Gli-1; type: in vivo; details: BXPC-3 tumors harvested 4 hours post the last dose; 30 mg/kg/day orally
Method: as §4

BXPC-3 cells = test: Pancreatic cancer model: subcutaneous BXPC-3 tumors in mice, tumor volume; type: in vivo, human; details: BXPC-3 subcutaneous in mice; orally 30 mg/kg/day, 25 daily doses
Method: as §4

L428 = test: Hodgkin's disease colony formation in methylcellulose, L428; type: cell-based, human; details: HD, 1.0 uM, 72 hours
Method: as §3

NCI-H929 = test: Multiple myeloma colony growth in methylcellulose, NCI-H929; type: cell-based, human; details: treated 96 hours, plated in methylcellulose, colonies quantified 10-21 days later
Method: as §5

Gli-1 mRNA = test: Medulloblastoma model (Ptch1/Hic1 subcutaneous allografts): Gli-1 mRNA expression in tumors; type: in vivo, mouse; details: single oral dose, subcutaneously implanted medulloblastoma tumors, 8 hours post dose
Method: as §7

KG1 = test: MDS colony formation in methylcellulose, KG1; type: cell-based, human; details: 1.0 uM, 72 hours
Method: as §1

KG1a = test: MDS colony formation in methylcellulose, KG1a; type: cell-based, human; details: 1.0 uM, 72 hours
Method: as §1

[6] = 2° plating (replating of colonies)

SMILES: CC1=C2C[C@H]3[C@@H](CC[C@H]4NC(=O)CC[C@@]43C)C2CC[C@@]2(C1)O[C@@H]1C[C@H](C)CN[C@H]1[C@H]2C (some centres unmarked) [Compound 1]
- EC50 [1]: < 0.02 µM

SMILES: CC1=C2C[C@H]3[C@@H](CC[C@@H]4NC(=O)CC[C@@]43C)[C@@H]2CC[C@@]2(C1)O[C@@H]1C[C@H](C)CN[C@H]1[C@H]2C [Compound 11]
- EC50 [1]: > 0.1 µM

SMILES: CC1=C2C[C@H]3[C@@H](CC[C@@H]4CNC(=O)CC[C@@]43C)[C@@H]2CC[C@@]2(C1)O[C@@H]1C[C@H](C)CN[C@H]1[C@H]2C [Compound 12]
- % colony formation with Compound 12 (relative to vehicle control) (U937): 43.4%
- % colony formation with Compound (relative to vehicle control) - 1° plating (REH; 1° plating): 63%
- % colony formation with Compound (relative to vehicle control) - 2° plating (REH; [6]): 9%
- % colony formation with Compound (relative to vehicle control) - 1° plating (RS4-11; 1° plating): 71%
- % colony formation with Compound (relative to vehicle control) - 2° plating (RS4-11; [6]): 11%
- % colony formation with Compound 12 (relative to vehicle control) (Jeko-1): 27.4%
- % colony formation with Compound 12 (relative to vehicle control) (RL): 14.3%
- murine Gli-1 mRNA levels (q-RT-PCR) compared to Vehicle treated group (murine Gli-1 mRNA): robust down-regulation
- % growth of cells (untreated control 100%) [2]: less than 25%
- Relative luc activity (+ Compound) [3]: 1.12
- Relative luc activity (+ Compound) [4]: 1.31
- % growth of cells (untreated control 100%) (KMS12): less than 25%
- Relative luc activity (+ Compound) [5]: 1.44
- ED50 (medulloblastoma; Mus musculus, daily oral dosing, medulloblastoma allografts, read-out: approximate effective daily oral dose for 50% inhibition of tumor growth (ED50)): 3 to 7.5 mg/kg
- tumor regression (medulloblastoma; daily (QD) PO administration, at higher doses): frank tumor regression seen at higher doses
- inhibition of tumor growth (medulloblastoma; daily (QD) PO administration, medulloblastoma allografts): dose dependent inhibition of tumor growth
- human Gli-1 modulation (q-RT-PCR) (human Gli-1): no modulation
- reduced tumor volume growth compared to the vehicle control (BXPC-3 cells): 16%
- % colony formation with Compound 12 (relative to vehicle control) (L428): 21.4%
- % growth of cells (untreated control 100%) (NCI-H929): less than 25%
- EC50 [1]: 0.02 to 0.1 µM
- HH pathway regulation measured by Gli-1 mRNA expression (Gli-1 mRNA): dose-dependent down-regulation
- % colony formation with Compound 12 (relative to vehicle control) (KG1): 25.1%
- % colony formation with Compound 12 (relative to vehicle control) (KG1a): 34.6%

SMILES: CC1=C2C[C@H]3[C@@H](CC[C@@H]4CC(=O)NCC[C@@]43C)[C@@H]2CC[C@@]2(C1)O[C@@H]1C[C@H](C)CN[C@H]1[C@H]2C [Compound 19]
- EC50 [1]: > 0.1 µM

SMILES: CC1=C2C[C@H]3[C@@H](CC[C@@H]4CN(C)C(=O)CC[C@@]43C)[C@@H]2CC[C@@]2(C1)O[C@@H]1C[C@H](C)CN[C@H]1[C@H]2C [Compound 31]
- EC50 [1]: 0.02 to 0.1 µM

SMILES: CC1=C2C[C@H]3[C@@H](CC[C@@H]4CN(C)C(=O)CC[C@@]43C)[C@@H]2CC[C@@]2(C1)O[C@@H]1C[C@H](C)CN(S(C)(=O)=O)[C@H]1[C@H]2C [Compound 35]
- EC50 [1]: > 0.1 µM

SMILES: CC1=C2C[C@H]3[C@@H](CC[C@@H]4CNC(=O)CC[C@@]43C)[C@@H]2CC[C@@]2(C1)O[C@@H]1C[C@H](C)CN(S(C)(=O)=O)[C@H]1[C@H]2C [Compound 40]
- EC50 [1]: < 0.02 µM

SMILES: CC1=C2C[C@H]3[C@@H](CCC4=CN(C)C(=O)CC[C@@]43C)[C@@H]2CC[C@@]2(C1)O[C@@H]1C[C@H](C)CN[C@H]1[C@H]2C [Compound 41]
- EC50 [1]: > 0.1 µM

SMILES: CC1=C2C[C@H]3[C@@H](CC[C@@H]4CCN(S(C)(=O)=O)CC[C@@]43C)[C@@H]2CC[C@@]2(C1)O[C@@H]1C[C@H](C)CN(S(C)(=O)=O)[C@H]1[C@H]2C [Compound 50]
- EC50 [1]: > 0.1 µM
